Source: US20240067632A1, “WEE1 Degrading Compounds and Uses Thereof” (Bristol-Myers Squibb Company, priority 2022, published 2024)

Target: T1, WEE1 (Homo sapiens, UniProt P30291+Q96SW2)
T1 construct: C-terminal ePL-tagged (DiscoverX, Fremont, CA) full-length WEE1 expression construct; expressed in transfected cells; host or cells: LentiX-HEK293T (Invitrogen), lentiviral transduction; co-expressing GSPT1-GN (G576N, lacking the first 158 amino acids)
Test: WEE1-ePL degradation assay (LentiX-WEE1-ePL-GSPT1-ND cells, InCELL Hunter luminescence, 4 h)
Format: cell-based
Conditions: 293T-LentiX WEE1-ePL cells; for DC50: read-out: 293T-LentiX WEE1-ePL Degradation 4 hr (EC50)
Experimental: To generate LentiX-WEE1-ePL-GSPT1-ND cells for the WEE1 degradation assay, LentiX-HEK293T (Invitrogen) were transduced by lentivirus with a C-terminal ePL-tagged (DiscoverX, Fremont, CA) full-length WEE1 expression construct. […] Cells were selected and maintained in complete DMEM media (DMEM, 10% Heat Inactivated FBS, 400 μg/mL Geneticin, and 1 μg/mL puromycin at 37 C and 5% CO2). Cells were passaged every 3-4 days by reseeding 1×10^6 cells in a T150 flask.
Cells were dispensed into 384-well white plates (Corning #3570, NY) that were pre-spotted with compounds using an acoustic dispenser (Echo acoustic transfer system, Beckman Coulter Life Sciences, Carlsbad, CA) as a 10-point dose-response curve with a 3-fold dilution starting at either 1 uM or 10 uM and including a DMSO control. Twenty-five microliters of media containing 2500 cells for LentiX-oeWEE1-ePL was dispensed per well. Assay plates were incubated at 37° C. with 5% CO2 for four hours (WEE1) After incubation, 25 μL of the InCELL Hunter™ Detection Reagent Working Solution (DiscoverX, Fremont, CA) was added to each well and incubated at room temperature for 30 minutes protected from light. After 30 minutes, luminescence was read on a PHERAstar luminometer (Cary, NC).
To determine the half-maximal effective concentration (EC50) values for WEE1-ePL degradation, a four parameter logistic model was used: (Sigmoidal Dose-Response Model) (FIT=(A+((B−A)/1+((C/x)^D)))) where C is the inflection point (EC50), D is the Hill slope, and A and B are the low and high limits of the fit respectively). The lower limit of the fit (value A) is referred to as Ymin. […] The maximum limit constraint, Ymax, is similarly derived using DMSO control. The curves were processed and evaluated using Activity Base (IDBS, Alameda, CA).

[1] = lower limit of the fit (Ymin=0 luciferase inhibitor, Ymax DMSO control)
[2] = lower limit of the fit (0 = luciferase inhibitor, Ymax = DMSO control)

| 293T-LentiX WEE1-ePL Degradation 4 hr (Ymin) [1] | DC50 [nM] | 293T-LentiX WEE1-ePL Degradation 4 hr (Ymin) [2] | Structure (SMILES) |
| --- | --- | --- | --- |
| 29.77 | 5.82 | – | O=C1CC[C@H](N2Cc3cc(O[C@H]4CCN(Cc5cc6ccc(C7CCOCC7)nc6cc5F)C4)ccc3C2=O)C(=O)N1 [(3S)-3-(5-{[(3S)-1-{[7-fluoro-2-(oxan-4-yl)quinolin-6-yl]methyl}pyrrolidin-3-yl]oxy}-1-oxo-2,3-dihydro-1H-isoindol-2-yl)piperidine-2,6-dione] |
| – | – | 80.095 | O=C1CCC(N2Cc3ccc(O[C@H]4CCN(Cc5ccc6cnccc6c5)C4)cc3C2=O)C(=O)N1 (stereo partly drawn) [3-(6-{[(3S)-1-[(isoquinolin-6-yl)methyl]pyrrolidin-3-yl]oxy}-1-oxo-2,3-dihydro-1H-isoindol-2-yl)piperidine-2,6-dione] |
| 80.98 | – | – | O=C1CCC(N2Cc3cc(O[C@H]4CCN(Cc5ccc6nc(C7CCOCC7)ccc6c5)C4=O)ccc3C2=O)C(=O)N1 (stereo partly drawn) [3-(5-{[(3S)-1-{[2-(oxan-4-yl)quinolin-6-yl]methyl}-2-oxopyrrolidin-3-yl]oxy}-1-oxo-2,3-dihydro-1H-isoindol-2-yl)piperidine-2,6-dione] |
| – | – | 87 | NCc1ccc(COc2cccc(CN3CC[C@H](Oc4ccc5c(c4)CN(C4CCC(=O)NC4=O)C5=O)C3)c2)cc1 (stereo partly drawn) [3-(5-{[(3S)-1-[(3-{[4-(aminomethyl)phenyl]methoxy}phenyl)methyl]pyrrolidin-3-yl]oxy}-1-oxo-2,3-dihydro-1H-isoindol-2-yl)piperidine-2,6-dione] |
| – | – | 81.05 | NCc1cccc(COc2cccc(CN3CC[C@H](Oc4ccc5c(c4)CN(C4CCC(=O)NC4=O)C5=O)C3)c2)c1 (stereo partly drawn) [3-(5-{[(3S)-1-[(3-{[3-(aminomethyl)phenyl]methoxy}phenyl)methyl]pyrrolidin-3-yl]oxy}-1-oxo-2,3-dihydro-1H-isoindol-2-yl)piperidine-2,6-dione] |
| – | 196 | 75.96 | O=C1CCC(N2Cc3cc(O[C@H]4CCN(Cc5cccc(OC(F)F)c5)C4)ccc3C2=O)C(=O)N1 (stereo partly drawn) [3-(5-{[(3S)-1-{[3-(difluoromethoxy)phenyl]methyl}pyrrolidin-3-yl]oxy}-1-oxo-2,3-dihydro-1H-isoindol-2-yl)piperidine-2,6-dione] |

Continued, compound first:

| Structure (SMILES) | 293T-LentiX WEE1-ePL Degradation 4 hr (Ymin) [1] | DC50 [nM] | 293T-LentiX WEE1-ePL Degradation 4 hr (Ymin) [2] |
| --- | --- | --- | --- |
| O=C1CCC(N2C(=O)c3ccc(O[C@@H]4CCN(Cc5cnc6ccccc6c5)C4)cc3C2=O)C(=O)N1 (stereo partly drawn) [2-(2,6-dioxopiperidin-3-yl)-5-{[(3R)-1-[(quinolin-3-yl)methyl]pyrrolidin-3-yl]oxy}-2,3-dihydro-1H-isoindole-1,3-dione] | – | – | 86.31 |
| NCc1ccccc1COc1cccc(CN2CC[C@H](Oc3ccc4c(c3)CN(C3CCC(=O)NC3=O)C4=O)C2)c1 (stereo partly drawn) [3-(5-{[(3S)-1-[(3-{[2-(aminomethyl)phenyl]methoxy}phenyl)methyl]pyrrolidin-3-yl]oxy}-1-oxo-2,3-dihydro-1H-isoindol-2-yl)piperidine-2,6-dione] | – | – | 74.31 |
| Nc1cccc(COc2ccccc2CN2CC[C@H](Oc3ccc4c(c3)CN(C3CCC(=O)NC3=O)C4=O)C2)c1 (stereo partly drawn) [3-(5-{[(3S)-1-({2-[(3-aminophenyl)methoxy]phenyl}methyl)pyrrolidin-3-yl]oxy}-1-oxo-2,3-dihydro-1H-isoindol-2-yl)piperidine-2,6-dione] | – | – | 92.17 |
| NCc1ccc(COc2ccccc2CN2CC[C@H](Oc3ccc4c(c3)CN(C3CCC(=O)NC3=O)C4=O)C2)cc1 (stereo partly drawn) [3-(5-{[(3S)-1-[(2-{[4-(aminomethyl)phenyl]methoxy}phenyl)methyl]pyrrolidin-3-yl]oxy}-1-oxo-2,3-dihydro-1H-isoindol-2-yl)piperidine-2,6-dione] | – | – | 88.71 |
| O=C1CCC(N2Cc3cc(O[C@@H]4CCN(Cc5cccc6ncccc56)C4)ccc3C2=O)C(=O)N1 (stereo partly drawn) [3-(1-oxo-5-{[(3R)-1-[(quinolin-5-yl)methyl]pyrrolidin-3-yl]oxy}-2,3-dihydro-1H-isoindol-2-yl)piperidine-2,6-dione] | 91.51 | – | – |
| O=C1CCC(N2Cc3cc(O[C@@H]4CCN(c5cnccn5)C4)ccc3C2=O)C(=O)N1 (stereo partly drawn) [3-(1-oxo-5-{[(3R)-1-(pyrazin-2-yl)pyrrolidin-3-yl]oxy}-2,3-dihydro-1H-isoindol-2-yl)piperidine-2,6-dione] | 110 | – | – |
| O=C1CCC(N2Cc3cc(O[C@H]4CCN(Cc5cccc6ncncc56)C4)ccc3C2=O)C(=O)N1 (stereo partly drawn) [3-(1-oxo-5-{[(3S)-1-[(quinazolin-5-yl)methyl]pyrrolidin-3-yl]oxy}-2,3-dihydro-1H-isoindol-2-yl)piperidine-2,6-dione] | – | 408 | 58.74 |
| Nc1cccc(COc2cccc(CN3CC[C@H](Oc4ccc5c(c4)CN(C4CCC(=O)NC4=O)C5=O)C3)c2)c1 (stereo partly drawn) [3-(5-{[(3S)-1-({3-[(3-aminophenyl)methoxy]phenyl}methyl)pyrrolidin-3-yl]oxy}-1-oxo-2,3-dihydro-1H-isoindol-2-yl)piperidine-2,6-dione] | – | 818 | 78.15 |
| O=C1CCC(N2C(=O)c3ccc(O[C@@H]4CCN(Cc5cccc6ncccc56)C4)cc3C2=O)C(=O)N1 (stereo partly drawn) [2-(2,6-dioxopiperidin-3-yl)-5-{[(3R)-1-[(quinolin-5-yl)methyl]pyrrolidin-3-yl]oxy}-2,3-dihydro-1H-isoindole-1,3-dione] | – | – | 89.045 |
| Cc1nccc(CN2CC[C@H](Oc3ccc4c(c3)CN(C3CCC(=O)NC3=O)C4=O)C2)c1C (stereo partly drawn) [3-(5-{[(3S)-1-[(2,3-dimethylpyridin-4-yl)methyl]pyrrolidin-3-yl]oxy}-1-oxo-2,3-dihydro-1H-isoindol-2-yl)piperidine-2,6-dione] | – | 54.5 | 43.42 |
| COC[C@@H]1CCC[C@@H](c2ccc3cc(CN4CC[C@H](Oc5ccc6c(c5)CN(C5CCC(=O)NC5=O)C6=O)C4)ccc3n2)C1 (stereo partly drawn) [3-(5-{[(3S)-1-({2-[(1R,3R)-3-(methoxymethyl)cyclohexyl]quinolin-6-yl}methyl)pyrrolidin-3-yl]oxy}-1-oxo-2,3-dihydro-1H-isoindol-2-yl)piperidine-2,6-dione] | 26.54 | 2.17 | – |
| NCc1ccccc1COc1ccccc1CN1CC[C@H](Oc2ccc3c(c2)CN(C2CCC(=O)NC2=O)C3=O)C1 (stereo partly drawn) [3-(5-{[(3S)-1-[(2-{[2-(aminomethyl)phenyl]methoxy}phenyl)methyl]pyrrolidin-3-yl]oxy}-1-oxo-2,3-dihydro-1H-isoindol-2-yl)piperidine-2,6-dione] | – | – | 89.91 |
| O=C1CCC(N2Cc3cc(O[C@@H]4CCN(Cc5cnc6ccccc6c5)C4)ccc3C2=O)C(=O)N1 (stereo partly drawn) [3-(1-oxo-5-{[(3R)-1-[(quinolin-3-yl)methyl]pyrrolidin-3-yl]oxy}-2,3-dihydro-1H-isoindol-2-yl)piperidine-2,6-dione] | 83.91 | – | – |
| Cc1nc(C)c(CN2CC[C@@H](Oc3ccc4c(c3)CN(C3CCC(=O)NC3=O)C4=O)C2)s1 (stereo partly drawn) [3-(5-{[(3R)-1-[(2,4-dimethyl-1,3-thiazol-5-yl)methyl]pyrrolidin-3-yl]oxy}-1-oxo-2,3-dihydro-1H-isoindol-2-yl)piperidine-2,6-dione] | 94.2 | – | – |
| O=C1CCC(N2Cc3cc(O[C@@H]4CCN(Cc5c[nH]c6ncccc56)C4)ccc3C2=O)C(=O)N1 (stereo partly drawn) [3-(1-oxo-5-{[(3R)-1-({1H-pyrrolo[2,3-b]pyridin-3-yl}methyl)pyrrolidin-3-yl]oxy}-2,3-dihydro-1H-isoindol-2-yl)piperidine-2,6-dione] | 87.61 | – | – |
